Assay results as given in patent US10344017B2, “Pyrrolcarboxamide derivatives for the inhibition of ERK5” (CANCER RESEARCH TECHNOLOGY LIMITED, priority 2014, dated 2019).
pIC50: −log10 of the molar value.

Biological target: T1, ERK5 (Homo sapiens, UniProt Q13164)
T1 construct: made in house
Test: ERK5 IMAP assay (fluorescence polarisation)
Format: biochemical
Conditions: average (e.g. geometric mean) where more than one data point; read-out: ERK5 IC50

T1 sequence (Q13164 whole entry): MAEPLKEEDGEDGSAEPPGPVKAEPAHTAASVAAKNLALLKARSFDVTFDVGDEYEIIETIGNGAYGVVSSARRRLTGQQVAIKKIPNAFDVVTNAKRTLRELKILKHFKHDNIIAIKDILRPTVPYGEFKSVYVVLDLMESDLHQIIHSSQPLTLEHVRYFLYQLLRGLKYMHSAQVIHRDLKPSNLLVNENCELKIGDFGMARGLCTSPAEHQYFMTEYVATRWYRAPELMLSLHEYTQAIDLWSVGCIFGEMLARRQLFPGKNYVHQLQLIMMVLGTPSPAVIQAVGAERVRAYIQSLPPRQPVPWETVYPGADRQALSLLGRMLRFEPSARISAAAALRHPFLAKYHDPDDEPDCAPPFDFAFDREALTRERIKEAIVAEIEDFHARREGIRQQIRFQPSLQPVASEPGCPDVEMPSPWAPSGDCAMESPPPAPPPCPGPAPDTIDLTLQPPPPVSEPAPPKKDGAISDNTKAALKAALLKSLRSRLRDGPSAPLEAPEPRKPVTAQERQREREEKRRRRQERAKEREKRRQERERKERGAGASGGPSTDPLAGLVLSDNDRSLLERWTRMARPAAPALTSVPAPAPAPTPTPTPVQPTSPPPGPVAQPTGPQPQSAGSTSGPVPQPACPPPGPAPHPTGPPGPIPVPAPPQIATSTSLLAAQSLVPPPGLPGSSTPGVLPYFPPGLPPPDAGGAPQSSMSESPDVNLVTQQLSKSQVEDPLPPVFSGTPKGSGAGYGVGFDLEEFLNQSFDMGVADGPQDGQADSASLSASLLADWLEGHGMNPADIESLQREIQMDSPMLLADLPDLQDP

| Compound | pIC50 |
| --- | --- |
| C#Cc1cccc(F)c1C(=O)c1c[nH]c(C(=O)NC2CCN(C)CC2)c1 [Example 205, 4-(2-Ethynyl-6-fluorobenzoyl)-N-(1-methylpiperidin-4-yl)-1H-pyrrole-2-carboxamide] | 5.55 |
| O=C(Nc1cccnc1)c1cc(C(=O)c2c(F)ccc(F)c2F)c[nH]1 [Example 206, N-(Pyridin-3-yl)-4-(2,3,6-trifluorobenzoyl)-1H-pyrrole-2-carboxamide] | 6.40 |
| O=C(Nc1cncnc1)c1cc(C(=O)c2c(F)ccc(F)c2F)c[nH]1 [Example 207, N-(Pyrimidin-5-yl)-4-(2,3,6-trifluorobenzoyl)-1H-pyrrole-2-carboxamide] | 5.97 |
| O=C(NC1CCNCC1)c1cc(C(=O)c2c(F)ccc(F)c2F)c[nH]1 [Example 208, N-(Piperidin-4-yl)-4-(2,3,6-trifluorobenzoyl)-1H-pyrrole-2-carboxamide] | 6.21 |
| CN1CCC(NC(=O)c2cc(C(=O)c3c(F)ccc(F)c3F)c[nH]2)CC1 [Example 209, N-(1-Methylpipendin-4-yl)-4-(2,3,6-trifluorobenzoyl)-1H-pyrrole-2-carboxamide] | 6.24 |
| O=C(Nc1cccnc1)c1cc(C(=O)c2c(F)ccc(Cl)c2F)c[nH]1 [Example 210, 4-(3-Chloro-2,6-difluorobenzoyl)-N-(pyridin-3-yl)-1H-pyrrole-2-carboxamide] | 6.54 |
| O=C(Nc1cncnc1)c1cc(C(=O)c2c(F)ccc(Cl)c2F)c[nH]1 [Example 211, 4-(3-Chloro-2,6-difluorobenzoyl)-N-(pyrimidin-5-yl)-1H-pyrrole-2-carboxamide] | 6.65 |
| O=C(NC1CCNCC1)c1cc(C(=O)c2c(F)ccc(Cl)c2F)c[nH]1 [Example 212, 4-(3-Chloro-2,6-difluorobenzoyl)-N-(piperidin-4-yl)-1H-pyrrole-2-carboxamide] | 6.53 |
| O=C(Nc1cccnc1)c1cc(C(=O)c2c(F)ccc(F)c2Cl)c[nH]1 [Example 214, 4-(2-Chloro-3,6-difluorobenzoyl)-N-(pyridin-3-yl)-1H-pyrrole-2-carboxamide] | 6.00 |
| O=C(NC1CCNCC1)c1cc(C(=O)c2c(F)ccc(F)c2Cl)c[nH]1 [Example 215, 4-(2-Chloro-3,6-difluorobenzoyl)-N-(piperidin-4-yl)-1H-pyrrole-2-carboxamide] | 6.16 |
| CN1CCC(NC(=O)c2cc(C(=O)c3c(F)ccc(F)c3Cl)c[nH]2)CC1 [Example 216, 4-(2-Chloro-3,6-difluorobenzoyl)-N-(1-methylpiperidin-4-yl)-1H-pyrrole-2-carboxamide] | 6.20 |
| Cc1ccc(F)c(C(=O)c2c[nH]c(C(=O)Nc3cccnc3)c2)c1F [Example 217, 4-(2.6-Difluoro-3-methylbenzoyl)-N-(pyridin-3-yl)-1H-pyrrole-2-carboxamide] | 6.18 |
| Cc1ccc(F)c(C(=O)c2c[nH]c(C(=O)Nc3cncnc3)c2)c1F [Example 218, 4-(2,6-Difluoro-3-methylbenzoyl)-N-(pyrimidin-5-yl)-1H-pyrrole-2-carboxamide] | 6.11 |
| Cc1ccc(F)c(C(=O)c2c[nH]c(C(=O)NC3CCNCC3)c2)c1F [Example 219, 4-(2,6-Difluoro-3-methylbenzoyl)-N-(piperidin-4-yl)-1H-pyrrole-2-carboxamide] | 6.20 |
| Cc1ccc(F)c(C(=O)c2c[nH]c(C(=O)NC3CCN(C)CC3)c2)c1F [Example 220, 4-(2,6-Difluoro-3-methylbenzoyl)-N-(1-methylpiperidin-4-yl)-1H-pyrrole-2-carboxamide] | 6.40 |
| O=C(Nc1cccnc1)c1cc(C(=O)c2c(Cl)ccc(F)c2F)c[nH]1 [Example 221, 4-(6-Chloro-2,3-difluorobenzoyl)-N-(pyridin-3-yl)-1H-pyrrole-2-carboxamide] | 6.15 |

| Compound | pIC50 |
| --- | --- |
| O=C(Nc1cncnc1)c1cc(C(=O)c2c(Cl)ccc(F)c2F)c[nH]1 [Example 222, 4-(6-Chloro-2,3-difluorobenzoyl)-N-(pyrimidin-5-yl)-1H-pyrrole-2-carboxamide] | 6.26 |
| CN1CCC(NC(=O)c2cc(C(=O)c3c(Cl)ccc(F)c3F)c[nH]2)CC1 [Example 223, 4-(6-Chloro-2,3-difluorobenzoyl)-N-(1-methylpiperidin-4-yl)-1H-pyrrole-2-carboxamide] | 6.70 |
| O=C(NC1CCNCC1)c1cc(C(=O)c2c(Cl)ccc(F)c2F)c[nH]1 [Example 224, 4-(6-Chloro-2,3-difluorobenzoyl)-N-(piperidin-4-yl)-1H-pyrrole-2-carboxamide] | 6.81 |
| O=C(NC1CCNCC1)c1cc(C(=O)c2cc(F)ccc2F)c[nH]1 [Example 226, 4-(2,5-Difluorobenzoyl)-N-(piperidin-4-yl)-1H-pyrrole-2-carboxamide] | 5.07 |
| CN1CCC(NC(=O)c2cc(C(=O)c3cc(F)ccc3F)c[nH]2)CC1 [Example 227, 4-(2,5-Difluorobenzoyl)-N-(1-methylpiperidin-4-yl)-1H-pyrrole-2-carboxamide] | 5.21 |
| O=C(Nc1cccnc1)c1cc(C(=O)c2cc(Cl)ccc2F)c[nH]1 [Example 228, 4-(5-Chloro-2-fluorobenzoyl)-N-(pyridin-3-yl)-1H-pyrrole-2-carboxamide] | 5.62 |
| O=C(Nc1cncnc1)c1cc(C(=O)c2cc(Cl)ccc2F)c[nH]1 [Example 229, 4-(5-Chloro-2-fluorobenzoyl)-N-(pyrimidin-5-yl)-1H-pyrrole-2-carboxamide] | 5.69 |
| O=C(NC1CCNCC1)c1cc(C(=O)c2cc(Cl)ccc2F)c[nH]1 [Example 230, 4-(5-Chloro-2-fluorobenzoyl)-N-(piperidin-4-yl)-1H-pyrrole-2-carboxamide] | 5.78 |
| CN1CCC(NC(=O)c2cc(C(=O)c3cc(Cl)ccc3F)c[nH]2)CC1 [Example 231, 4-(5-Chloro-2-fluorobenzoyl)-N-(1-methylpiperidin-4-yl)-1H-pyrrole-2-carboxamide] | 5.71 |
| Cc1ccc(F)c(C(=O)c2c[nH]c(C(=O)Nc3cccnc3)c2)c1 [Example 232, 4-(2-Fluoro-5-methylbenzoyl)-N-(pyridin-3-yl)-1H-pyrrole-2-carboxamide] | 5.39 |
| Cc1ccc(F)c(C(=O)c2c[nH]c(C(=O)Nc3cncnc3)c2)c1 [Example 233, 4-(2-Fluoro-5-methylbenzoyl)-N-(pyrimidin-5-yl)-1H-pyrrole-2-carboxamide] | 5.28 |
| Cc1ccc(F)c(C(=O)c2c[nH]c(C(=O)NC3CCN(C)CC3)c2)c1 [Example 234, 4-(2-Fluoro-5-methylbenzoyl)-N-(1-methylpiperidin-4-yl)-1H-pyrrole-2-carboxamide] | 5.36 |
| O=C(Nc1cnn(CCO)c1)c1cc(C(=O)c2c(Cl)ccc(Cl)c2F)c[nH]1 [Example 235, 4-(3,6-Dichloro-2-fluorobenzo)-N-(1-(2-hydroxyethyl)-1H-pyrazol-4-yl)-1H-pyrrole-2-carboxamide] | 7.21 |
| O=C(Nc1cnn(C2CCOCC2)c1)c1cc(C(=O)c2c(Cl)ccc(Cl)c2F)c[nH]1 [Example 237, 4-(3,6-Dichloro-2-fluorobenzoyl)-N-(1-(tetrahydro-2H-pyran-4-yl)-1H-pyrazol-4-yl)-1H-pyrrole-2-carboxamide] | 6.83 |
| CS(=O)(=O)CCn1cc(NC(=O)c2cc(C(=O)c3c(Cl)ccc(Cl)c3F)c[nH]2)cn1 [Example 238, 4-(3,6-Dichloro-2-fluorobenzoyl)-N-(1-(2-(methylsulfonyl)ethyl)-1H-pyrazol-4-yl)-1H-pyrrole-2-carboxamide] | 6.93 |
